From ChEMBL document CHEMBL5705883, “Discovery of a selective inhibitor of oncogenic B-Raf kinase with potent antimelanoma activity” (Proc Natl Acad Sci U S A, 2008)
Activity calls are given as the source filed them. The calls are words filed in the database; no cut-off is given here.

How the values were obtained:
NCI-H460 = assay: cells; conditions: Homo sapiens, NCI-H460, 72 h
cells [1] = conditions: Homo sapiens, COLO 205, 1 h
Mus musculus = species: Mus musculus; conditions: SCID, dose 100.0 mg/kg, route po, time 15.0 day
cells [2] = conditions: Homo sapiens, A-375, 1 h
in vivo = conditions: nude, mouse, plasma, po, 1000 mg/kg
COLO-829 = assay: cells; conditions: Homo sapiens, COLO-829, 72 h
cells [3] = conditions: HT716, 72 h
Calu-6 = assay: cells; conditions: Homo sapiens, Calu-6, 72 h
NCI-H1299 = assay: cells; conditions: Homo sapiens, NCI-H1299, 72 h
A-375 = assay: cells; conditions: Homo sapiens, A-375, 72 h
COLO 205 = assay: cells; conditions: Homo sapiens, COLO 205, 72 h
animal or person = conditions: Mus musculus, COLO 205, po, 336 h, read-out: INH
LoVo = assay: cells; conditions: Homo sapiens, 72 h
SW-620 = assay: cells; conditions: Homo sapiens, SW-620, 72 h
WM 266-4 = assay: cells; conditions: Homo sapiens, WM 266-4, 72 h
SK-MEL3 = assay: cells; conditions: Homo sapiens, SK-MEL3, 72 h
SK-MEL-2 = assay: cells; conditions: Homo sapiens, SK-MEL-2, 72 h
cells [4] = conditions: Homo sapiens, SW-620, 1 h
cells [5] = conditions: Homo sapiens, COLO-829, 1 h
HCT-116 = assay: cells; conditions: Homo sapiens, HCT-116, 72 h

CCCS(=O)(=O)Nc1ccc(F)c(C(=O)c2c[nH]c3ncc(Cl)cc23)c1F [PLX-4720]
GI50 (NCI-H460): 24 µM | IC50 (cells [1]): 0.014 µM | inhibition (Mus musculus): Active | IC50 (cells [2]): 0.046 µM | concentration at 336 h (in vivo): ≤ 600 µM | GI50 (COLO-829): 1.7 µM | GI50 (cells [3]): 10 µM | GI50 (Calu-6): 26 µM | GI50 (NCI-H1299): 41 µM | GI50 (A-375): 0.5 µM | GI50 (COLO 205): 0.31 µM | inhibition in vivo at 20 mg/kg (animal or person): 43% | GI50 (LoVo): 29 µM | GI50 (SW-620): 13 µM | GI50 (WM 266-4): 1.5 µM | GI50 (SK-MEL3): 27 µM | GI50 (SK-MEL-2): 27 µM | IC50 (cells [4]): > 40 µM | IC50 (cells [5]): 0.044 µM | GI50 (HCT-116): 27 µM
